Assay results taken from article PMC9213561, “3-nitroimidazo[1,2-b]pyridazine as a novel scaffold for antiparasitics with sub-nanomolar anti-Giardia lamblia activity” (International Journal for Parasitology: Drugs and Drug …, 2022).
Where a name gives a salt, the structure may show the parent alone. Read-outs that look alike come from different tables or passages of the source.

Columns and labels:
[1] = tested on: G. lamblia trophozoites (WBC6); assay: Growth inhibition of G. lamblia trophozoites (WBC6), resazurin viability read-out; format: cell-based, Giardia lamblia; settings: for IC50: Giardia duodenalis, WBC6 trophozoites, 72 h, anaerobic, mean ± standard error (95% CI, logit-log), quadruplicates, read-out: IC50 (nM) G.l.
Experimental: (§1) G. lamblia trophozoites (WBC6) were seeded into 96-well-plates in 0.2 mL Keister-medium containing 10^3 trophozoites per well in the presence of the compounds dissolved in dimethyl sulfoxide (DMSO, final concentration 0.25%) or with DMSO as a solvent control and incubated for 72 h at 37 °C in an anaerobic chamber (80% N2, 10% H2, 10% CO2). Then, plates were centrifuged (2 min, 1000 rpm), medium was removed, and cells were washed once with PBS containing 1 g/L glucose. Then, PBS-glucose containing 10 mg/L resazurin was added, and plates were incubated for up to 5 h at 37 °C. Fluorescence reading (ex 530 nm/em 590 nm) was performed at various time points, and the linear increase of fluorescence was used as a marker for cell viability. IC50 values were calculated using the logit-log algorithm and are given as mean values with 95%-confidence intervals ([Müller et al., 2020]; [Müller and Hemphill, 2013]; [Müller and Müller, 2019]). The assays for growth inhibition of T. b. brucei, T. cruzi, L. infantum, P. falciparum and MRC-5 (human lung fibroblasts MRC-5SV40) were previously described ([Blaazer et al., 2014]). PDE activity was determined exactly as described ([de Heuvel et al., 2021]; [Kunz et al., 2005], [2017b]). All assays were carried out in triplicates and no more than 20% substrate was hydrolyzed in all reactions. Compounds were dissolved in DMSO and the final DMSO concentration was 1% in all reaction mixes. Control reactions with DMSO alone were always included. Data were analyzed using the GraphPad Prism software package (v7.0, GraphPad, San Diego).
Figure S67. Representative drug susceptibility curves of G. lamblia WBC6. Trophozoites were grown anaerobically in the presence of various concentrations of 17 (red), 29 (blue) and the reference compound metronidazole (MET, black). After 72 h, growth of cells was monitored by a cell viability assay based on the reduction of resazurin to a pink fluorescent product. Measured fluorescence units were normalized to the DMSO control. Data points and error bars represent mean and standard error of 4 replicates.

[2] = tested on: Trypanosoma cruzi; assay: Growth inhibition of T. cruzi; format: cell-based; settings: mean ± standard deviation, n ≥ 2
Experimental: as §1

[3] = tested on: Trypanosoma brucei brucei; assay: Growth inhibition of T. b. brucei; format: cell-based; settings: mean ± standard deviation, n ≥ 2
Experimental: as §1

[4] = tested on: Leishmania infantum; assay: Growth inhibition of L. infantum; format: cell-based; settings: mean ± standard deviation, n ≥ 2
Experimental: as §1

[5] = tested on: Plasmodium falciparum; assay: Growth inhibition of P. falciparum; format: cell-based
Experimental: as §1, with “[…]-medium” for “Keister-medium”, “([[…],” for “([Müller et al., 2020]; [Müller and Hemphill, 2013]; [Müller and Müller,”

[6] = tested on: MRC-5 (human lung fibroblasts MRC-5SV40); assay: Cytotoxicity on MRC-5 cells; format: cell-based
Experimental: as §1, with “[…]-medium” for “Keister-medium”, “([[…],” for “([Müller et al., 2020]; [Müller and Hemphill, 2013]; [Müller and Müller,”

[7] = mean ± standard deviation, n ≥ 2, read-out: IC50 (µM) P.f.
[8] = MRC5, mean ± standard deviation, n ≥ 2, read-out: IC50 (nM) MRC-5
[9] = MRC5, Table S1, mean ± standard deviation, n ≥ 2, read-out: IC50 (µM) MRC-5

IC50 [1]	IC50 [2]	IC50 [3]	IC50 [4]	IC50 [5, 7]	Compound	IC50 [6, 8]	IC50 [6, 9]	anti-Giardia activity (in words) [1]	difference in inhibiting growth of G. lamblia ([1]; 31 (non-nitro analogue) versus 23)	fold higher anti-Giardia activity than metronidazole ([1]; versus metronidazole IC50 = 0.8 μM)	IC50 ([5]; read-out: IC50 (µM) P.f.)
800 ± 100 nM	–	–	–	–	Cc1ncc([N+](=O)[O-])n1CCO [metronidazole, reference compound]	–	–	–	–	–	–
9.3 ± 0.6 nM	2.2 µM	2.1 µM	25.9 ± 24.4 µM	3 ± 1.9 µM	COc1ccc(C2=NN(C3CCN(c4ccc5ncc([N+](=O)[O-])n5n4)CC3)C(=O)[C@H]3CC=CC[C@@H]23)cc1OC1CCCC1 (relative stereo) [Compound 12, cis-4-(3-(Cyclopentyloxy)-4-methoxyphenyl)-2-(1-(3-nitroimidazo[1,2-b]pyridazin-6-yl)piperidin-4-yl)-4a,5,8,8a-tetrahydrophthalazin-1(2H)-one]	> 64000 nM	–	–	–	–	–
3.6 ± 0.8 nM	32.3 ± 1.1 µM	> 64 µM	> 64 µM	> 64 µM	O=[N+]([O-])c1cnc2ccc(N3CCCCC3)nn12 [Compound 23, 3-Nitro-6-(piperidin-1-yl)imidazo[1,2-b]pyridazine]	28100 nM	–	–	–	–	–
10.3 ± 1.5 nM	29.7 ± 5.7 µM	> 64 µM	46.9 ± 5.5 µM	> 64 µM	COc1ccc(CN(C)c2ccc3ncc([N+](=O)[O-])n3n2)cc1 [Compound 30, N-(4-Methoxybenzyl)-N-methyl-3-nitroimidazo[1,2-b]pyridazin-6-amine]	> 64000 nM	–	–	–	–	–
0.7 ± 0.1 nM	> 64 µM	> 64 µM	35.3 ± 4 µM	> 64 µM	O=[N+]([O-])c1cnc2ccc(N3CCN(c4ccccc4)CC3)nn12 [Compound 27, 3-Nitro-6-(4-phenylpiperazin-1-yl)imidazo[1,2-b]pyridazine]	> 64000 nM	–	–	–	–	–
22 ± 3 nM	> 64 µM	> 64 µM	> 64 µM	> 64 µM	CN(C)c1ccc2ncc([N+](=O)[O-])n2n1 [Compound 21, N,N-Dimethyl-3-nitroimidazo[1,2-b]pyridazin-6-amine]	> 64000 nM	–	–	–	–	–
6.8 ± 1.5 nM	2.1 µM	2.2 µM	8.1 µM	2.1 ± 0.8 µM	COc1ccc(C2=NN(C3CCN(c4ccc5ncc([N+](=O)[O-])n5n4)CC3)C(=O)[C@H]3CC=CC[C@@H]23)cc1OCc1cccnc1 (relative stereo) [Compound 15, cis-4-(4-Methoxy-3-(pyridin-3-ylmethoxy)phenyl)-2-(1-(3-nitroimidazo[1,2-b]pyridazin-6-yl)piperidin-4-yl)-4a,5,8,8a-tetrahydrophthalazin-1(2H)-one]	15000 nM	14900 ± 11500 nM	–	–	–	–
–	2.5 ± 0.4 µM	–	–	–	O=C(Cn1ccnc1[N+](=O)[O-])NCc1ccccc1 [benznidazole, reference compound]	–	–	–	–	–	–
2.8 ± 0.8 nM	11.2 ± 7.9 µM	1.4 ± 0.4 µM	30.6 ± 2.3 µM	1.1 ± 0.5 µM	COc1ccccc1COc1cc(C2=NN(C3CCN(c4ccc5ncc([N+](=O)[O-])n5n4)CC3)C(=O)[C@H]3CC=CC[C@@H]23)ccc1OC (relative stereo) [Compound 16, cis-4-(4-Methoxy-3-((2-methoxybenzyl)oxy)phenyl)-2-(1-(3-nitroimidazo[1,2-b]pyridazin-6-yl)piperidin-4-yl)-4a,5,8,8a-tetrahydrophthalazin-1(2H)-one]	49000 nM	48900 ± 21400 nM	–	–	–	–
1 ± 0.5 nM	31.8 ± 12.1 µM	> 64 µM	32.5 µM	0.7 ± 0.5 µM	COc1cccc(COc2cc(C3=NN(C4CCN(c5ccc6ncc([N+](=O)[O-])n6n5)CC4)C(=O)[C@H]4CC=CC[C@@H]34)ccc2OC)c1 (relative stereo) [Compound 14, cis-4-(4-Methoxy-3-((3-methoxybenzyl)oxy)phenyl)-2-(1-(3-nitroimidazo[1,2-b]pyridazin-6-yl)piperidin-4-yl)-4a,5,8,8a-tetrahydrophthalazin-1(2H)-one]	> 64000 nM	–	–	–	–	–
> 10000 nM	38.4 ± 3.2 µM	> 64 µM	> 64 µM	> 64 µM	c1cn2nc(N3CCCCC3)ccc2n1 [Compound 31, 6-(Piperidin-1-yl)imidazo[1,2-b]pyridazine]	> 64000 nM	–	inactive	> 2,500 folds	–	–
–	–	0.05 ± 0.02 µM	–	–	Cc1ccc(C(=O)Nc2ccc(S(=O)(=O)O)c3cc(S(=O)(=O)O)cc(S(=O)(=O)O)c23)cc1NC(=O)c1cccc(NC(=O)Nc2cccc(C(=O)Nc3cc(C(=O)Nc4ccc(S(=O)(=O)O)c5cc(S(=O)(=O)O)cc(S(=O)(=O)O)c45)ccc3C)c2)c1 [Suramine, suramin, reference compound]	–	–	–	–	–	–
8.2 ± 1 nM	> 64 µM	> 64 µM	> 64 µM	> 64 µM	O=[N+]([O-])c1cnc2ccc(N3CCC(c4ccccc4)CC3)nn12 [Compound 26, 3-Nitro-6-(4-phenylpiperidin-1-yl)imidazo[1,2-b]pyridazine]	> 64000 nM	–	–	–	–	–
1.1 ± 0.2 nM	18.9 ± 13.9 µM	34.4 ± 2.4 µM	11.7 ± 1.4 µM	> 64 µM	O=C(c1ccccc1)C1CCN(c2ccc3ncc([N+](=O)[O-])n3n2)CC1 [Compound 29, (1-(3-Nitroimidazo[1,2-b]pyridazin-6-yl)piperidin-4-yl)(phenyl)methanone]	> 64000 nM	–	–	–	–	–
0.5 ± 0.1 nM	2.1 ± 0.1 µM	4.92 ± 1.6 µM	11.8 ± 7.5 µM	2.3 ± 1.4 µM	COc1ccc(C2=NN(C3CCN(c4ccc5ncc([N+](=O)[O-])n5n4)CC3)C(=O)[C@H]3CC=CC[C@@H]23)cc1OCc1ccccn1 (relative stereo) [Compound 17, cis-4-(4-Methoxy-3-(pyridin-2-ylmethoxy)phenyl)-2-(1-(3-nitroimidazo[1,2-b]pyridazin-6-yl)piperidin-4-yl)-4a,5,8,8a-tetrahydrophthalazin-1(2H)-one]	> 64000 nM	–	–	–	> 1,000 fold	–
–	–	–	10.3 ± 1.3 µM	–	CCCCCCCCCCCCCCCCOP(=O)([O-])OCC[N+](C)(C)C [Miltefosine, miltefosine, reference compound]	–	–	–	–	–	–
–	–	–	–	–	CCN(CC)CCCC(C)Nc1ccnc2cc(Cl)ccc12 (stereo not shown) [Chloroquine, chloroquine, reference compound]	–	–	–	–	–	0.1 ± 0.03 µM

Compound	IC50 [1]	IC50 [2]	IC50 [3]	IC50 [4]	IC50 [5, 7]	IC50 [6, 8]	IC50 [6, 9]	anti-Giardia activity (in words) [1]	difference in inhibiting growth of G. lamblia ([1]; 31 (non-nitro analogue) versus 23)	fold higher anti-Giardia activity than metronidazole ([1]; versus metronidazole IC50 = 0.8 μM)	IC50 ([5]; read-out: IC50 (µM) P.f.)
CN1CCN(c2ccc3ncc([N+](=O)[O-])n3n2)CC1 [Compound 24, 6-(4-Methylpiperazin-1-yl)-3-nitroimidazo[1,2-b]pyridazine formate]	144 ± 31 nM	33.5 ± 1.1 µM	> 64 µM	> 64 µM	> 64 µM	> 64000 nM	–	–	–	–	–
COc1ccc(C2=NN(C3CCN(c4ccc5ncc([N+](=O)[O-])n5n4)CC3)C(=O)[C@H]3CC=CC[C@@H]23)cc1OCc1cccc([N+](=O)[O-])c1 (relative stereo) [Compound 13, cis-4-(4-Methoxy-3-((3-nitrobenzyl)oxy)phenyl)-2-(1-(3-nitroimidazo[1,2-b]pyridazin-6-yl)piperidin-4-yl)-4a,5,8,8a-tetrahydrophthalazin-1(2H)-one]	1.2 ± 0.4 nM	> 64 µM	> 64 µM	32.5 µM	1.6 ± 0.7 µM	> 64000 nM	–	–	–	–	–
